Results on six compounds are retold here after patent publication US20230322846A9, “NEUROACTIVE STEROIDS AND THEIR METHODS OF USE” (SAGE THERAPEUTICS, INC., priority 2018, published 2023).

pEC50, pIC50: −log10 of the molar value.

The target of assay [1] is human GABAA receptors composed of the α1β2γ2 subunits (Homo sapiens (Human), UniProt P14867+P18507+P47870). As to the kind of experiment: α1β2γ2 SyncroPatch automated patch clamp assay. The format is cell-based. Particulars: for pEC50: HEK cells, potentiation of submaximal GABA current, clamped at −120 mV; for α1β2γ2 EMAX: peak current after GABA+compound divided by peak current after GABA alone. As for the experimental part:
(§1) The SyncroPatch 384PE (Nanion, Germany) automated patch clamp platform was used to obtain recordings from human embryonic kidney cells stably expressing human GABAA receptors composed of the α1β2γ2 and α4β3δ subunits. Cells were bathed in an extracellular solution containing: 140 mM NaCl, 4 mM KCl, 2 mM CaCl2), 1 mM MgCl2, 10 mM HEPES, 5 mM glucose and 0.1% DMSO. Solution was maintained at pH 7.4 with NaOH and 300 mOsm/L. Chips with multi-hole (4×) medium resistance (2-3M) are used for the recombinant cell line experiments. Once harvested, cells are stored in extracellular solution set to 10° C. in the cell hotel with a minimum shaking speed of 200 rpm before addition to the chip at the beginning of each experiment. Whole cell patch clamp recordings were made using an intracellular solution containing: 90 mM KCl, 50 mM KF, 1.5 mM MgCl2, 11.1 mM EGTA and 10 mM HEPES, 2 mM NaATP, maintained at pH 7.2 with KOH. Currents are leak corrected (using P/2 leak correction protocol) and sampled at 5 kHz. Cells were clamped at −120 mV. After establishing a stable baseline, a submaximal concentration of GABA (3-5 μM for cells expressing α1β2γ2 and 10 μM for cells expressing […]) was applied at a rate of 10 μl/second, immediately followed by application of GABA+compound (10 μl/second) at a single concentration of compound per cell. Compounds were tested at six concentrations (0.029, 0.12, 0.47, 1.88, 7.5, and 30 μM) in n=8-12 cells per concentration. Compound effect was determined by dividing peak current amplitude after GABA+compound by peak current amplitude after GABA alone. EC50 and Emax values were determined from average values for each concentration.

Assay [2] has as its target human GABAA receptors composed of the α4β3δ subunits (Homo sapiens (Human), UniProt O14764+P28472+P48169). Description: α4β3δ SyncroPatch automated patch clamp assay. The format is cell-based. Particulars: for pEC50: HEK cells, potentiation of submaximal GABA current, clamped at −120 mV; for α4β3δ EMAX: peak current after GABA+compound divided by peak current after GABA alone. As for the experimental part:
as §1

The target in assay [3] is [35S]-TBPS binding, rat brain cortical membranes. As to the kind of experiment: Steroid inhibition of [35S]-TBPS binding. Particulars: 3 nM [35S]-TBPS, in the presence of 5 mM GABA. In short, it runs like this:
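Rat cortical P2 membranes incubated 90 min at room temperature with 3 nM [35S]-TBPS, […] and test compound (0.5% DMSO final) in NaCl/Na–K phosphate pH 7.4; nonspecific binding with […]. Filter-bound radioactivity counted; IC50 and Imax from nonlinear fits, mean ± SEM.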

Sequence of human GABAA receptors composed of the α4β3δ subunits (P48169 36-554 limits assumed): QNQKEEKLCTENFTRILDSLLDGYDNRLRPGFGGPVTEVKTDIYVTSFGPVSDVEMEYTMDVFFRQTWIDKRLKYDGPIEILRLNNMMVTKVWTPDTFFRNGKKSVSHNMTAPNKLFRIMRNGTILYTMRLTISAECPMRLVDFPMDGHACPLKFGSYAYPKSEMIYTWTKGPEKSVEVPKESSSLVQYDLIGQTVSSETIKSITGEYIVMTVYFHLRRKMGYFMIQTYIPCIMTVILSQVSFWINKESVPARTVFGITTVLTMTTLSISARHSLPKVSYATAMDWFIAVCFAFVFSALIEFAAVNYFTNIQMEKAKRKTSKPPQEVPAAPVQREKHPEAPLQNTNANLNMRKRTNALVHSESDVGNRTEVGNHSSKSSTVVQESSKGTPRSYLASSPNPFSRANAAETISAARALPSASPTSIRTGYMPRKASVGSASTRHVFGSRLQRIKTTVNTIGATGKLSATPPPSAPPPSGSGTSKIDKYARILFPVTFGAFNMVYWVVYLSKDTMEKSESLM
Sequence of human GABAA receptors composed of the α4β3δ subunits (P28472 26-473 limits assumed): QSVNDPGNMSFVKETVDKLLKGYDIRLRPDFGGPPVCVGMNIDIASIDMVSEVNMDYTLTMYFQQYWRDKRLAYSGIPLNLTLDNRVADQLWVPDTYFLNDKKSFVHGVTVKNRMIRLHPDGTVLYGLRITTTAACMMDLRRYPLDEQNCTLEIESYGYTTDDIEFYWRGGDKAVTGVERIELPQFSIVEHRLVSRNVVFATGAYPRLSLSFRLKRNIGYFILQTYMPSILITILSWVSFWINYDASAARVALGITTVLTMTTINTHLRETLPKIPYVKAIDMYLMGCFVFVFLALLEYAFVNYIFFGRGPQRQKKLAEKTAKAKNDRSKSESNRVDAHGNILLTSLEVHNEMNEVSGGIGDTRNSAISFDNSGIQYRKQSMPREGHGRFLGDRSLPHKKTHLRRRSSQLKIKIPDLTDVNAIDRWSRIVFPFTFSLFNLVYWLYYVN
Sequence of human GABAA receptors composed of the α4β3δ subunits (O14764 17-452 limits assumed): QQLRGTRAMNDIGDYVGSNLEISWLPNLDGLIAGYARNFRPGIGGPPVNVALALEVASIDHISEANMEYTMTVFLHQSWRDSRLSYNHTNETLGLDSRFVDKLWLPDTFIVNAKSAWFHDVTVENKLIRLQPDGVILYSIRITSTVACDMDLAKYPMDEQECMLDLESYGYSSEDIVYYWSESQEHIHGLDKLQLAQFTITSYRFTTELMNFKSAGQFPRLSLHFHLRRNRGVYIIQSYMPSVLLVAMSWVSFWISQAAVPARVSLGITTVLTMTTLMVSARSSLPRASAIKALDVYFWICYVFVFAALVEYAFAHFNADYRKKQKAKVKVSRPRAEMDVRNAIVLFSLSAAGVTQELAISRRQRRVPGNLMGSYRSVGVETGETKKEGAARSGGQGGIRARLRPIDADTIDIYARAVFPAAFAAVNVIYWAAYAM
Sequence of human GABAA receptors composed of the α1β2γ2 subunits (P14867 28-456 limits assumed): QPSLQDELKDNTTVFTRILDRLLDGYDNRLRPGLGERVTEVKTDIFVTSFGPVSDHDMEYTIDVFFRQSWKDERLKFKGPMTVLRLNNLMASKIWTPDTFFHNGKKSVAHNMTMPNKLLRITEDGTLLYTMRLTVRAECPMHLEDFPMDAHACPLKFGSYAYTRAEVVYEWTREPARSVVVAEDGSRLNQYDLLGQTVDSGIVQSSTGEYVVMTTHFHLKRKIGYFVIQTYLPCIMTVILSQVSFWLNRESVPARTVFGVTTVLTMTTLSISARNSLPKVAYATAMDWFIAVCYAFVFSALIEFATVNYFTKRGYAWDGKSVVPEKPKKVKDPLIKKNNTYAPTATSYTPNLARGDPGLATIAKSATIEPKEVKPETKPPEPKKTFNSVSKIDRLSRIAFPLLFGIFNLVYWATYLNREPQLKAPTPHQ
Sequence of human GABAA receptors composed of the α1β2γ2 subunits (P47870 25-512 limits assumed): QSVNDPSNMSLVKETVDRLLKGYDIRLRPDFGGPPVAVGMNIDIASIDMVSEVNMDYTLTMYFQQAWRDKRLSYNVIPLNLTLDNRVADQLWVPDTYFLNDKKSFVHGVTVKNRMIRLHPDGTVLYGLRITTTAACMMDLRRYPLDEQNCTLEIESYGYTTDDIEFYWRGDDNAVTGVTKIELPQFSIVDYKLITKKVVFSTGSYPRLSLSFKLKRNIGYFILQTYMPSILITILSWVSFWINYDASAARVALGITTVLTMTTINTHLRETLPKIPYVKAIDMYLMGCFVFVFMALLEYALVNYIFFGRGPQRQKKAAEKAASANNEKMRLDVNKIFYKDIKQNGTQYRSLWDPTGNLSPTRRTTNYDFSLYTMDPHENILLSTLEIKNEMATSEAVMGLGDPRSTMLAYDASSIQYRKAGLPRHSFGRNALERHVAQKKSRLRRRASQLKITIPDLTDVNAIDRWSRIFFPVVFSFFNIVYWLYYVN
Sequence of human GABAA receptors composed of the α1β2γ2 subunits (P18507 40-475 limits assumed): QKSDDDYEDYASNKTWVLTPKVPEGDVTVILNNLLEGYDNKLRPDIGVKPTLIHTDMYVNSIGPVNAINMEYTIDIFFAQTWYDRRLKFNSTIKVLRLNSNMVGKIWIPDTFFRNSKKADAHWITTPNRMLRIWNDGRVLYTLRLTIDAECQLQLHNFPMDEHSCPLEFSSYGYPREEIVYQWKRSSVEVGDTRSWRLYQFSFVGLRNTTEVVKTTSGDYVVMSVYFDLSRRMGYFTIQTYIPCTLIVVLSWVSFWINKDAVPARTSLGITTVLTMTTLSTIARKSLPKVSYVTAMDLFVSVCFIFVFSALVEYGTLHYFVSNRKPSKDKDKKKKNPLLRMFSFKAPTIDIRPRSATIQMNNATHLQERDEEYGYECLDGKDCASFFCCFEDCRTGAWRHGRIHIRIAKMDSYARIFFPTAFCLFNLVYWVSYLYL

Regarding `CCC[C@@]1(O)CC[C@H]2[C@@H](CC[C@@H]3[C@@H]2CC[C@]2(C)[C@@H]([C@@H](C)Cn4nnnc4C)CC[C@@H]32)C1` [Example 332, (3R,5S,8R,9R,10S,13S,14S,17R)-13-methyl-17-((R)-1-(5-methyl-1H-tetrazol-1-yl)propan-2-yl)-3-propylhexadecahydro-1H-cyclopenta[a]phenanthren-3-ol], in assay [1], the negative logarithm of the EC50 (pEC50) was over 6.70 and the “α1β2γ2 EMAX” value was “A (A indicates an Emax response <8)”. Further, in assay [2], the pEC50 is 6.00 to 6.70 and the “α4β3δ EMAX” value was “A (A indicates an Emax response <30)”. Besides, the pIC50 in assay [3] was 6.00 to 7.00.
On the same counts, the results for `CC[C@@]1(O)CC[C@H]2[C@H](CC[C@@H]3[C@@H]2CC[C@]2(C)[C@@H]([C@@H](C)Cn4ccc(C#N)n4)CC[C@@H]32)C1` [Example 272, 1-((R)-2-((3R,5R,8R,9R,10S,13S,14S,17R)-3-ethyl-3-hydroxy-13-methylhexadecahydro-1H-cyclopenta[a]phenanthren-17-yl)propyl)-1H-pyrazole-3-carbonitrile] are over 6.70, “C (C indicates an Emax response ≥10)”, over 6.70, “A (A indicates an Emax response <30)” and over 7.00.
On the same counts, the results for `CCOC[C@@]1(O)CC[C@H]2[C@H](CC[C@@H]3[C@@H]2CC[C@]2(C)[C@@H]([C@@H](C)Cc4cccc(C#N)n4)CC[C@@H]32)C1` [Example 413] are over 6.70, “C (C indicates an Emax response ≥10)”, over 6.70, “B (B indicates an Emax response 30 to <45)” and over 7.00.
In the case of `CCCC[C@@]1(O)CC[C@H]2[C@H](CC[C@@H]3[C@@H]2CC[C@]2(C)[C@@H]([C@@H](C)Cn4cc(C#N)cn4)CC[C@@H]32)C1` [Example 311, 1-((R)-2-((3R,5R,8R,9R,10S,13S,14S,17R)-3-butyl-3-hydroxy-13-methylhexadecahydro-1H-cyclopenta[a]phenanthren-17-yl)propyl)-1H-pyrazole-4-carbonitrile], in assay [1], the negative logarithm of the EC50 (pEC50) was over 6.70 and the “α1β2γ2 EMAX” value is “C (C indicates an Emax response ≥10)”. For the same compound, in assay [2], the pEC50 was 6.00 to 6.70 and the “α4β3δ EMAX” value is reported as “B (B indicates an Emax response 30 to <45)”. For the same compound, the pIC50 in assay [3] was over 7.00.
In the same order, the values of `CC[C@@]1(O)CC[C@@]2(C)[C@H](CC[C@@H]3[C@@H]2CC[C@]2(C)[C@@H]([C@@H](C)Cn4ccc(C#N)n4)CC[C@@H]32)C1` [Example 61, 1-((R)-2-((3R,5R,8R,9S,10S,13S,14S,17R)-3-ethyl-3-hydroxy-10,13-dimethylhexadecahydro-1H-cyclopenta[a]phenanthren-17-yl)propyl)-1H-pyrazole-3-carbonitrile] are over 6.70, “C (C indicates an Emax response ≥10)”, over 6.70, “A (A indicates an Emax response <30)” and over 7.00.
On the same counts, the results for `CCOC[C@@]1(O)CC[C@H]2[C@H](CC[C@@H]3[C@@H]2CC[C@]2(C)[C@@H]([C@H](C)Cn4ccc(C#N)n4)CC[C@@H]32)C1` [Example 287, 1-((S)-2-((3R,5R,8R,9R,10S,13S,14S,17R)-3-(ethoxymethyl)-3-hydroxy-13-methylhexadecahydro-1H-cyclopenta[a]phenanthren-17-yl)propyl)-1H-pyrazole-3-carbonitrile] are 6.00 to 6.70, “B (B indicates an Emax response 8 to <10)”, 6.00 to 6.70, “A (A indicates an Emax response <30)” and over 7.00.
